Patent US8178554B2, “Heterocyclic compounds, their preparation and their use as medicaments, in particular as anti-bacterial agents” (priority 2000, dated 2012)

Tests used:
Type in all cases: cell-based
S. aureus SG511 = assay: In vitro activity, dilution in liquid medium, M.I.C. on S. aureus SG511; settings: S. aureus SG511, code 011 HT3, incubation twenty-four hours at 37° C.
Method: (§1) In vitro activity, method of dilution in liquid medium
(§2) A series of tubes are prepared in which the same quantity of sterile nutritive medium is distributed. Increasing quantities of the product to be studied are distributed into each tube, then each tube is sown with a bacterial strain. After incubation for twenty-four hours in a heating chamber at 37° C., the growth inhibition is evaluated by transillumination, which allows the minimal inhibitory concentrations (M.I.C.) to be determined, expressed in μg/cml.

S. aureus Exp 54146 = assay: In vitro activity, dilution in liquid medium, M.I.C. on S. aureus Exp 54146; settings: S. aureus Exp 54146, code 011UC4, incubation twenty-four hours at 37° C.
Method: as §1, §2

S. Pyogenes A561 = assay: In vitro activity, dilution in liquid medium, M.I.C. on S. Pyogenes A561; settings: S. Pyogenes A561, code 02A1UC1, incubation twenty-four hours at 37° C.
Method: as §1, §2

E. coli = assay: In vitro activity, dilution in liquid medium, M.I.C. on E. coli 250HT11; settings: code 250HT11, incubation twenty-four hours at 37° C.
Method: as §1, §2

E. coli DC2 (permeable) = assay: In vitro activity, dilution in liquid medium, M.I.C. on E. coli DC2 (permeable); settings: code 250HT6, incubation twenty-four hours at 37° C.
Method: as §1, §2

E. coli (hyperpermeable) = assay: In vitro activity, dilution in liquid medium, M.I.C. on E. coli (hyperpermeable); settings: code 250IP5, incubation twenty-four hours at 37° C.
Method: as §1, §2

Row | SMILES | M.I.C. (S. aureus SG511) [µg/mL] | M.I.C. (S. aureus Exp 54146) [µg/mL] | M.I.C. (S. Pyogenes A561) [µg/mL] | M.I.C. (E. coli) [µg/mL] | M.I.C. (E. coli DC2 (permeable)) [µg/mL] | M.I.C. (E. coli (hyperpermeable)) [µg/mL]
1 | NC(=O)CNC(=O)[C@H]1CC[C@@H]2CN1C(=O)N2OS(=O)(=O)[O-].[Na+] (relative stereo) [Test A, Sodium salt of trans-N-(2-amino-2-oxoethyl)-7-oxo-6-(sulphooxy)-1,6-diazabicyclo[3,2,1]octane-2-carboxamide] | >160 | >160 | 160 | 160 | 80 | 20
2 | [NH-]C(=O)[C@H]1CC[C@@H]2CN1C(=O)N2OS(=O)(=O)[O-].[Na+].[Na+] (relative stereo) [Test B, Sodium salt of trans-7-oxo-6-(sulphooxy)-1,6-diazabicyclo[3,2,1]octane-2-carboxamide] | >160 | >160 | >160 | 80 | 40 | 10
3 | O=C(NCc1cccnc1)[C@H]1CC[C@@H]2CN1C(=O)N2OS(=O)(=O)[O-].[Na+] (relative stereo) [Test C, Sodium salt of trans-7-oxo-N-(3-pyridinylmethyl)-6-(sulphooxy)-1,6-diazabicyclo[3,2,1] octane-2-carboxamide] | >80 | >80 | >80 | 20 | 20 | 5
4 | O=C(NCc1ccncc1)[C@H]1CC[C@@H]2CN1C(=O)N2OS(=O)(=O)[O-].[Na+] (relative stereo) [Test D, Sodium salt of trans-7-oxo-N-[(4-pyridinyl)methyl]-6-(sulphooxy)-1,6-diazabicyclo[3,2,1] octane-2-carboxamide] | >80 | >80 | >80 | 20 | 20 | 2.5
5 | O=C(NCc1ccccc1)[C@H]1CC[C@@H]2CN1C(=O)N2OS(=O)(=O)[O-].[Na+] (relative stereo) [Test E, Sodium salt of trans-7-oxo-N-(phenylmethyl)-6-(sulphooxy)-1,6-diazabicyclo[3,2,1]octane-2-carboxamide] | 5 | 5 | 1.2 | >80 | >80 | 20
6 | O=C(OCc1ccccc1)[C@H]1CC[C@@H]2CN1C(=O)N2OS(=O)(=O)[O-].[Na+] (relative stereo) [Test F, Sodium salt of phenylmethyl trans-7-oxo-6-(sulphooxy)-1,6-diazabicyclo[3,2,1]octane-2-carboxylate] | 160 | 160 |  |  |  | 
